Reference: US20230183179A1, “NOVEL CELL METABOLISM MODULATING COMPOUNDS AND USES THEREOF” (CRESCENTA BIOSCIENCES, priority 2020, published 2023)

Legend:
[1] = test system: differentiated 3T3-L1 mouse adipocyte cells; assay: Adipocyte glucose consumption in differentiated 3T3-L1 cells (colorimetric glucose assay of the medium); type: cell-based; conditions: 3T3-L1, 24 h, compound 10 μM, loss of glucose from culture medium, mean fold change (compound/DMSO)
Procedure: Activity of compounds on adipocyte glucose consumption was tested in differentiated 3T3-L1 mouse adipocyte cells. 3T3-L1 preadipocytes (ATCC) were routinely cultured in a growth medium composed of DMEM high-glucose (Sigma), 10% FBS (Gibco), 10 U/ml penicillin and 10 μg/ml streptomycin (P/S; Gibco). To induce adipogenic differentiation, a confluent layer of 3T3-L1 cells were incubated with the growth medium containing 2 μM rosiglitazone, 1 μM dexamethasone, 500 μM IBMX, and 1 μg/ml insulin (Sigma). Forty-eight (48) hours later (on day 2) and on days 4 and 6, medium of the cells was replaced with fresh medium containing 1 μg/ml insulin. On days 8 and 10, the medium was refreshed with regular growth medium and addition of insulin was omitted. On day 11, medium of the cells were 10 replaced with fresh medium containing either the indicated compounds (10 μM) or the vehicle in which the compounds were dissolved (DMSO). The final concentration of DMSO was 0.1% (v/v). Growth medium containing 0.1% DMSO was incubated in culture wells containing no cells and used as control. 24 hours later, medium was harvested and subjected to centrifugation at 10,000 g for 5 min. Glucose concentration in the supernatants was determined using a 15 colorimetric assay (Glucose Assay Kit I, Eton Biosciences). Glucose consumption in compound and vehicle treated cells was measured as loss of glucose from the culture medium and represented as mean fold change (compound/DMSO)±standard deviation (SD).

[2] = target: T1, His6 tagged human recombinant FABP4 (Homo sapiens, UniProt P15090); assay: FABP4 TR-FRET assay: displacement of fluorescent fatty acid BODIPY FL C12; conditions: inhibition of BODIPY FL C12 binding to His6-FABP4; 1.2 μL of 1.085 mM compound in DMSO per well; triplicates, mean percent inhibition
T1 construct: purchased Cayman Chemicals 10009549
Excerpt: Activity of compounds with FABP4 was profiled using a Terbium (Tb) based time resolved fluorescence energy transfer (TR-FRET) assay. The assay measures the compound mediated displacement of the fluorescent fatty acid BODIPY FL C12 (Thermo Fisher; catalog number D3822) from His6 tagged human recombinant FABP4 (His6-FABP4; Cayman Chemicals, catalog number 10009549) via recording the energy transfer from TB donor molecule on anti-His6-tag antibody to acceptor BODIPY moiety. Briefly, compounds and BODIPY FL C12 were prepared at a concentration of 1.085 mM and 4.2 μM, respectively, in DMSO. 1.2 μL of each compound or DMSO (vehicle control) and 1.2 μL of BODIPY FL C12 were added into the wells of a 384-well black polypropylene plate. His6-FABP4 and Tb anti-His6 antibody were prepared in the assay buffer (25 mM Tris/HCl, pH 7.4, 0.4 mg/ml γ-globulins, 0.010% NP-40, 1 mM DTT) at a concentration of 83 nM and 49.6 nM, respectively. The protein and antibody solutions were then mixed at a ratio of 34:7 (v/v) and incubated on ice for 30 minutes. The assay was initiated by adding 41 μL of the resulting protein/antibody solution into the wells containing the compounds and BODIPY FL C12. The plate was centrifuged and incubated at room temperature for 10 min. The TR-FRET signals were recorded using an EnVision Multilabel plate reader (PerkinElmer; TB excitation 320 nm, BODIPY FL C12 emission 520 nm; TB emission 615 nm). Relative fluorescence ratio (520 nm*10,000/615 nm) were used to calculate the compound mediated inhibition of BODIPY C12 FL fatty acid binding to FABP4. The compounds were tested in triplicates and the results were represented as mean percent inhibition (compound*100/DMSO)±standard deviation (SD). Glucose consumption and FABP4 inhibition is shown below in Table 3 below. The compounds showing no inhibition of activity in the TR-FRET assay are marked as N.A. N.D. stands for “not determined”.

T1 sequence (P15090 whole entry): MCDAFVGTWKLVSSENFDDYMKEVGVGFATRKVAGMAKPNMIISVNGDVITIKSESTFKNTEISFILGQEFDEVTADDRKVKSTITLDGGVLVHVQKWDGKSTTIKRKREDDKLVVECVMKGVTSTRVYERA

| SMILES | fold induction at 10 µM [1] | inhibition at 1085 µM (stock) [2] [%] |
| --- | --- | --- |
| CCCCCc1ccc2nc(N(C)CC(=O)O)cc(-c3cccc(C#N)c3)c2c1 [2-{[4-(3-cyanophenyl)-6-pentylquinolin-2-yl](methyl)amino}acetic acid] | 1.23 | 65.1 |
| COc1ccc2nc(N(C)CC(=O)O)cc(-c3ccccc3)c2c1 [2-[(6-methoxy-4-phenylquinolin-2-yl)(methyl)amino]acetic acid] | 1.12 | 101 |
| CCCCCCc1ccc2nc(N3CC(C(=O)O)CC3=O)cc(-c3ccccc3)c2c1 (centres unmarked) [1-(6-hexyl-4-phenylquinolin-2-yl)-5-oxopyrrolidine-3-carboxylic acid] | 1.11 | 6.12 |
| COc1cccc(CCc2ccc3nc(N(C)CC(=O)O)cc(-c4ccccc4)c3c2)c1 [2-({6-[2-(3-methoxyphenyl)ethyl]-4-phenylquinolin-2-yl}(methyl)amino)acetic acid] | 1.31 | 93.2 |
| CN(CC(=O)O)c1cc(-c2ccccc2)c2cc(CCc3ccc(Cl)cc3)ccc2n1 [2-({6-[2-(4-chlorophenyl)ethyl]-4-phenylquinolin-2-yl}(methyl)amino)acetic acid] | 1.43 | 56.4 |
| CCCCCCc1ccc2nc(N(C)CC(=O)O)c(C)c(N3CCOCC3)c2c1 [2-{[6-hexyl-3-methyl-4-(morpholin-4-yl)quinolin-2-yl](methyl)amino}acetic acid] | 1.17 | 93.8 |
| CCCCc1ccc2nc(N(C)CC(=O)O)cc(-c3cccc(C#N)c3)c2c1 [2-{[6-butyl-4-(3-cyanophenyl)quinolin-2-yl](methyl)amino}acetic acid] | 1.33 | 33.2 |
| CCCCCc1ccc2nc(N(C)CC(=O)O)cc(-c3ccccc3)c2c1 [2-[methyl(6-pentyl-4-phenylquinolin-2-yl)amino]acetic acid] | 1.32 | 90.5 |
| CCCCc1ccc2nc(N3CCCC3C(=O)O)cc(-c3ccccc3)c2c1 (centres unmarked) [1-(6-butyl-4-phenylquinolin-2-yl)pyrrolidine-2-carboxylic acid] | 1.12 | 92.5 |
| CCCCCCc1ccc2nc(N(CCC)CC(=O)O)cc(-c3ccc(F)cc3)c2c1 [2-{[4-(4-fluorophenyl)-6-hexylquinolin-2-yl](propyl)amino}acetic acid] | 1.13 | 57.1 |
| CCCCc1ccc2nc(N3CCCC(C(=O)O)C3)cc(-c3ccccc3)c2c1 (centres unmarked) [1-(6-butyl-4-phenylquinolin-2-yl)piperidine-3-carboxylic acid] | 1.25 | 98.1 |
| CN(CC(=O)O)c1cc(-c2ccccc2)c2cc(CCc3ccc4ncccc4c3)ccc2n1 [2-[methyl({4-phenyl-6-[2-(quinolin-6-yl)ethyl]quinolin-2-yl})amino]acetic acid] | 1.4 | 34.7 |
| CCCCc1ccc2nc(N(C)CC(=O)O)cc(-c3ccc(O)cc3)c2c1 [2-{[6-butyl-4-(4-hydroxyphenyl)quinolin-2-yl](methyl)amino}acetic acid] | 1.26 | 60.5 |
| CCCCCc1ccc2nc(OCC(=O)O)cc(-c3ccccc3)c2c1 [2-[(6-pentyl-4-phenylquinolin-2-yl)oxy]acetic acid] | 1.05 | 55.1 |
| CCCCCCc1ccc2nc(N(CC)CC(=O)O)cc(-c3ccc(F)cc3)c2c1 [2-{ethyl[4-(4-fluorophenyl)-6-hexylquinolin-2-yl]amino}acetic acid] | 1.27 | 78.3 |
| CCc1ccc2nc(N(C)CC(=O)O)cc(-c3cccc(C#N)c3)c2c1 [2-{[4-(3-cyanophenyl)-6-ethylquinolin-2-yl](methyl)amino}acetic acid] | 1.16 | 50.8 |

| SMILES | fold induction at 10 µM [1] | inhibition at 1085 µM (stock) [2] [%] |
| --- | --- | --- |
| CN(CC(=O)O)c1cc(-c2ccncc2)c2cc(CCc3ccccn3)ccc2n1 [2-[methyl({6-[2-(pyridin-2-yl)ethyl]-4-(pyridin-4-yl)quinolin-2-yl})amino]acetic acid] | 1.06 | 16.1 |
| CCCCc1ccc2nc(N(C)CC(=O)O)cc(-c3ccccc3F)c2c1 [2-{[6-butyl-4-(2-fluorophenyl)quinolin-2-yl](methyl)amino}acetic acid] | 1.33 | 67 |
| CCCCCc1ccc2nc(OCC(=O)O)cc(-c3cccc(C(N)=O)c3)c2c1 [2-{[4-(3-carbamoylphenyl)-6-pentylquinolin-2-yl]oxy}acetic acid] | 1.02 | 74.2 |
| CC(C)(c1cc(-c2ccccc2)c2cc(CCc3ccccc3)ccc2n1)c1nnn[nH]1 [4-phenyl-6-(2-phenylethyl)-2-[2-(1H-1,2,3,4-tetrazol-5-yl)propan-2-yl]quinoline] | 1.2 | 75 |
| CN(CC(=O)O)c1cc(-c2ccccc2)c2cc(Br)ccc2n1 [2-[(6-bromo-4-phenylquinolin-2-yl)(methyl)amino]acetic acid] | 1.26 | 109 |
| CCCCc1ccc2nc(N(C)CC(C)C(=O)O)cc(-c3cccc(C#N)c3)c2c1 (centres unmarked) [3-{[6-butyl-4-(3-cyanophenyl)quinolin-2-yl](methyl)amino}-2-methylpropanoic acid] | 1.21 | 38.7 |
| CN(CC(=O)O)c1cc(-c2ccccc2)c2cc(CCc3cncnc3)ccc2n1 [2-[methyl({4-phenyl-6-[2-(pyrimidin-5-yl)ethyl]quinolin-2-yl})amino]acetic acid] | 1.22 | 13.2 |
| CN(CC(=O)O)c1cc(-c2ccccc2)c2cc(CCN3CCOCC3)ccc2n1 [2-[methyl({6-[2-(morpholin-4-yl)ethyl]-4-phenylquinolin-2-yl})amino]acetic acid] | 1.13 | 6.78 |
| CCCCCCCCc1ccc2nc(N(CCC)CC(=O)O)cc(-c3ccc(F)cc3)c2c1 [2-{[4-(4-fluorophenyl)-6-octylquinolin-2-yl](propyl)amino}acetic acid] | 1.2 | 53.1 |
| CN(c1cc(-c2ccccc2)c2cc(CCc3ccccc3)ccc2n1)c1nnn[nH]1 [N-methyl-4-phenyl-6-(2-phenylethyl)-N-(1H-1,2,3,4-tetrazol-5-yl)quinolin-2-amine] | 1.17 | 76.3 |
| Clc1ccc2nc(N3CCCCC3)cc(-c3ccccc3)c2c1 [6-chloro-4-phenyl-2-(piperidin-1-yl)quinoline] | 0.99 | 64.3 |
| O=C(O)COc1cc(-c2ccccc2)c2cc(Br)ccc2n1 [2-[(6-bromo-4-phenylquinolin-2-yl)oxy]acetic acid] | 1.01 | 35 |
| CCCCc1ccc2nc(OCC(=O)O)cc(-c3cccc(C#N)c3)c2c1 [2-{[6-butyl-4-(3-cyanophenyl)quinolin-2-yl]oxy}acetic acid] | 1.12 | 36.2 |
| CCc1ccc2nc(N(C)CC(=O)O)cc(-c3ccccc3)c2c1 [2-[(6-ethyl-4-phenylquinolin-2-yl)(methyl)amino]acetic acid] | 1.12 | 103 |
| CN(CC(=O)O)c1cc(-c2ccccc2)c2cc(CCc3ccc4nccnc4c3)ccc2n1 [2-[methyl({4-phenyl-6-[2-(quinoxalin-6-yl)ethyl]quinolin-2-yl})amino]acetic acid] | 1.33 | 33.6 |
